Here are results for 2 molecules from article PMC3814616, “BRAF inhibitors suppress apoptosis through off-target inhibition of JNK signaling” (eLife, 2013).

One experiment concerns the target T1, MLK1 (MAP3K9) (Homo sapiens, UniProt P80192).
T1 construct: purchased KINOMEscan (DiscoveRx), San Diego, CA
To be noted: read-out: Published biochemical IC50, cited from earlier work.

In another experiment the target is T2, MAP4K3 (Homo sapiens, UniProt Q8IVH8).
T2 construct: purchased KINOMEscan (DiscoveRx), San Diego, CA
T2 sequence (Q8IVH8 1-894): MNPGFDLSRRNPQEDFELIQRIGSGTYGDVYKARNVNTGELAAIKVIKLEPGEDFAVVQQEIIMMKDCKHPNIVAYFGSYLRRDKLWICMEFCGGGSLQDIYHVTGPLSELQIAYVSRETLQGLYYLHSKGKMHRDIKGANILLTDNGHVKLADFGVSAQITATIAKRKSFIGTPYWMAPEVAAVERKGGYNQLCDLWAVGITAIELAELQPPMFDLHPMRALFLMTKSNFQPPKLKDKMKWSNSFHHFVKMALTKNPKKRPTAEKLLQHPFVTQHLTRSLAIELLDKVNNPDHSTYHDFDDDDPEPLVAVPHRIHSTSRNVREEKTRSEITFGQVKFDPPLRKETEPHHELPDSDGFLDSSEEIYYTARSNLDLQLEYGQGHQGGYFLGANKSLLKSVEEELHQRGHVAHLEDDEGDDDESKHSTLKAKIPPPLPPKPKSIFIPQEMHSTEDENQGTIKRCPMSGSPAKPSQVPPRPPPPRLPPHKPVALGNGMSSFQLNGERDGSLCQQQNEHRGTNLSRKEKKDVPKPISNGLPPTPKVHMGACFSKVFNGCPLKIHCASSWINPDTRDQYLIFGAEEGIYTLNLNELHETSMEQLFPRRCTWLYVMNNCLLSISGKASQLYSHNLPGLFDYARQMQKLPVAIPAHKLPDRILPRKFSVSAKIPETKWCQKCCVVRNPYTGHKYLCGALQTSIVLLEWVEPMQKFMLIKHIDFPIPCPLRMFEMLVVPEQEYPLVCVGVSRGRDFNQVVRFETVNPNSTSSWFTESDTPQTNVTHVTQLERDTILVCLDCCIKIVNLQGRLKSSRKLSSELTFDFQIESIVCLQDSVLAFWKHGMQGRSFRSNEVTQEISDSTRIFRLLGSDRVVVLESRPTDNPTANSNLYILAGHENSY
The experiment can be described thus: Quantitative competitive binding assay (KINOMEscan). To be noted: for remaining binding at 0.05 µM: read-out: Percent control (50 nM); for remaining binding at 0.2 µM: read-out: Percent control (200 nM); for remaining binding at 1 µM: read-out: Percent control (1000 nM); for remaining binding at 10 µM: read-out: Percent control (10 μM).

The subject of the next experiment is JNK and p38 isoforms. Also on record: method as in Tsai et al., 2008; Bollag et al., 2010. To be noted: ref Tsai et al., 2008; Bollag et al., 2010; cited from earlier work.
Experiment [1] deals with epidermal keratinocytes of C57BL/6 mice. As to the kind of experiment: Acute UVR-induced epidermal apoptosis in mouse skin. Conditions: in vivo. An excerpt:
Cutaneous squamous cell carcinomas biopsied from patients treated with or without BRAF-inhibitor were obtained either under clinical trials (Roche) or separate IRB approval (LAB08-0750). Staining levels were quantified by counting positively labeled cells and dividing by the total area of the tumor tissue within each sample. To measure tumor areas, all samples were photographed, tumor cells outlined, and total pixel numbers calculated using included image analysis tools in Adobe Photoshop and standardized to a hemacytometer to convert to mm^2. To measure apoptosis in irradiated skin, pyknotic or dyskeratotic epidermal keratinocytes were counted and normalized to length (mm) of epidermis.

In a further experiment the target is T3, TAOK2 (Homo sapiens, UniProt Q9UL54).
T3 construct: purchased KINOMEscan (DiscoveRx), San Diego, CA
T3 sequence (Q9UL54 1-1235): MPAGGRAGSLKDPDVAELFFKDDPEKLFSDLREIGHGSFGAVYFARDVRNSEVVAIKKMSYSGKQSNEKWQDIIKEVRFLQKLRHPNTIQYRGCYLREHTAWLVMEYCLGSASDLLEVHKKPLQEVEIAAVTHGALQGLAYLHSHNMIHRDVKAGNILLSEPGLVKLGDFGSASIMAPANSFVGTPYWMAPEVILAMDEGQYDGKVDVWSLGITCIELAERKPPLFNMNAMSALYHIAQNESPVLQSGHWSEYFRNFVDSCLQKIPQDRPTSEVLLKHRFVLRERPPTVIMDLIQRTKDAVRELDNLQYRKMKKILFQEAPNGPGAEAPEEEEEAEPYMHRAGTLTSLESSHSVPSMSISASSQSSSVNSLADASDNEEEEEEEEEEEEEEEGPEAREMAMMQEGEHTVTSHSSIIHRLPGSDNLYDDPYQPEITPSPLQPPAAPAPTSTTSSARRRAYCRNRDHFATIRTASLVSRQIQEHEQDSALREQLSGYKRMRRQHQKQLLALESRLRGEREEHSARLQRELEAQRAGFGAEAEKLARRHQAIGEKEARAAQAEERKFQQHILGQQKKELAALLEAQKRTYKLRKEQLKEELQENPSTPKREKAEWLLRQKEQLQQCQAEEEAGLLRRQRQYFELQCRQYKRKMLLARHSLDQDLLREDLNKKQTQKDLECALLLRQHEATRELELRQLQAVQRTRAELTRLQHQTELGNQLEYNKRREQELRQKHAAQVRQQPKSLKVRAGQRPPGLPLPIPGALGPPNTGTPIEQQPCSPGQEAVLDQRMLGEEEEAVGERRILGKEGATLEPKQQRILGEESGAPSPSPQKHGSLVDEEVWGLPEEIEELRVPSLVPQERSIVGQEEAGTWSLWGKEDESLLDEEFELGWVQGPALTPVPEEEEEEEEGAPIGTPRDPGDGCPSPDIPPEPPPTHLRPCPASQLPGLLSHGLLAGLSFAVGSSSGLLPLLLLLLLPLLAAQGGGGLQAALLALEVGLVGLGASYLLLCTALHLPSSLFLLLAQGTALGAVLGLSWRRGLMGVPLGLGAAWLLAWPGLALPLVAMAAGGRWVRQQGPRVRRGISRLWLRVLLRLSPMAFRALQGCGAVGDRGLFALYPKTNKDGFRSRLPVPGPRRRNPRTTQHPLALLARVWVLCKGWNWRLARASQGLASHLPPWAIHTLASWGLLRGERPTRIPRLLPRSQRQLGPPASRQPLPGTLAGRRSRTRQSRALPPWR
The experiment can be described thus: Quantitative competitive binding assay (KINOMEscan). Conditions: for remaining binding at 0.05 µM: read-out: Percent control (50 nM); for remaining binding at 0.2 µM: read-out: Percent control (200 nM); for remaining binding at 1 µM: read-out: Percent control (1000 nM); for remaining binding at 10 µM: read-out: Percent control (10 μM).

The next experiment has as its target BRAF(V600E) (Homo sapiens, UniProt P15056, V600E). As to the kind of experiment: biochemical.
The subject of the next experiment is A375 melanoma cell line. To be noted: ref Tsai et al., 2008; cited from earlier work.
Another experiment concerns the target T4, MINK (MINK1) (Homo sapiens, UniProt Q8N4C8).
T4 construct: purchased KINOMEscan (DiscoveRx), San Diego, CA
Also on record: method as in Bollag et al., 2010. Conditions: ref Bollag et al., 2010; read-out: Published biochemical IC50; cited from earlier work.

pIC50: −log10 of the molar value. Read-outs that look alike come from different tables or passages of the source. A value given as a limit tells only on which side of the number the result lay.

Sequence of BRAF(V600E) (P15056 whole entry V600E): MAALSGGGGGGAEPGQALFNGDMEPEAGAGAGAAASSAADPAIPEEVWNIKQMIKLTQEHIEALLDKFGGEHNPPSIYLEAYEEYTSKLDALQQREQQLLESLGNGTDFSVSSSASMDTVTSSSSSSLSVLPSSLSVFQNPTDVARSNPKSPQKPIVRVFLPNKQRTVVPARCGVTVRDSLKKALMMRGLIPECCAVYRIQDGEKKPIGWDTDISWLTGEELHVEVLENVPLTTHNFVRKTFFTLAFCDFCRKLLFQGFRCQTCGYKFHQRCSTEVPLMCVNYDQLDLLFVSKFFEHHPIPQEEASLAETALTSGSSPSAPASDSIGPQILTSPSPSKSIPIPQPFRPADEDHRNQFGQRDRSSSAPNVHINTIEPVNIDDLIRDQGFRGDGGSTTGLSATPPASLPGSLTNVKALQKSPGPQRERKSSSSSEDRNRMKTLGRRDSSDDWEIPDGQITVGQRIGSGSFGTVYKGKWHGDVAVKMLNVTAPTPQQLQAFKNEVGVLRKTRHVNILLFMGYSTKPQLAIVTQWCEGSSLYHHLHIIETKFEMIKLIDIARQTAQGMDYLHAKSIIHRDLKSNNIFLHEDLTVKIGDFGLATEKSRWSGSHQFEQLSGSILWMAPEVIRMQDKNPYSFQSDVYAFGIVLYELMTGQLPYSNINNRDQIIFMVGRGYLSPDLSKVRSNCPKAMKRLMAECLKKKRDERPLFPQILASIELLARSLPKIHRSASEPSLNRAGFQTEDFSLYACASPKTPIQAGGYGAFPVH
T1 sequence (P80192 whole entry): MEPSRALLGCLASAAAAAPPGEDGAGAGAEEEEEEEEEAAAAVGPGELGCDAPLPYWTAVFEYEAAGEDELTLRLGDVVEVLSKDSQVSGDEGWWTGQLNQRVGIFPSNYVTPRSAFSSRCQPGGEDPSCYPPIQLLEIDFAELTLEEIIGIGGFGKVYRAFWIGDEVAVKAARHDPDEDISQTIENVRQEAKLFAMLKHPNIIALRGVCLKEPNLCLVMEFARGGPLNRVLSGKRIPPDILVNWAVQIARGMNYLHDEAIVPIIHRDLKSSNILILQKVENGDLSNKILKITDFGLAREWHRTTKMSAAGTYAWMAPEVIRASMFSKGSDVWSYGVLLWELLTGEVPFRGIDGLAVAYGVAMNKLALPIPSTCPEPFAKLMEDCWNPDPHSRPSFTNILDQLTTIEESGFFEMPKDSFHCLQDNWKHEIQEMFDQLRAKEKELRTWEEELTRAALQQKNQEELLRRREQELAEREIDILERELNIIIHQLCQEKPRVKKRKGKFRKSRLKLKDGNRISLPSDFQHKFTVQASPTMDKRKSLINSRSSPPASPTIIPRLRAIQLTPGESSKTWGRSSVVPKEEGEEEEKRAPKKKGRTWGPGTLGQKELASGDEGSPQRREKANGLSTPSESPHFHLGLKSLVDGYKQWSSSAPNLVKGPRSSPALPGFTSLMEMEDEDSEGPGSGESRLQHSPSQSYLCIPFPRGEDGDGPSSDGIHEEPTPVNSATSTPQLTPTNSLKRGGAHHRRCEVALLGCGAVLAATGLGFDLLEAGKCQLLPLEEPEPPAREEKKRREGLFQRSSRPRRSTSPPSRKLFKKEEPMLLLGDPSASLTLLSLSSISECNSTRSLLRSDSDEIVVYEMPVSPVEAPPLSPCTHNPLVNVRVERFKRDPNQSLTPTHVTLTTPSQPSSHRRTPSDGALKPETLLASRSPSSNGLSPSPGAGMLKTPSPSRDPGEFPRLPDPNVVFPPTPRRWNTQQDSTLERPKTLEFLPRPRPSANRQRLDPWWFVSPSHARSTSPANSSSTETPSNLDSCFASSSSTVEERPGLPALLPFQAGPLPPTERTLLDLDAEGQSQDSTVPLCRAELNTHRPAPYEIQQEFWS
T4 sequence (Q8N4C8 whole entry): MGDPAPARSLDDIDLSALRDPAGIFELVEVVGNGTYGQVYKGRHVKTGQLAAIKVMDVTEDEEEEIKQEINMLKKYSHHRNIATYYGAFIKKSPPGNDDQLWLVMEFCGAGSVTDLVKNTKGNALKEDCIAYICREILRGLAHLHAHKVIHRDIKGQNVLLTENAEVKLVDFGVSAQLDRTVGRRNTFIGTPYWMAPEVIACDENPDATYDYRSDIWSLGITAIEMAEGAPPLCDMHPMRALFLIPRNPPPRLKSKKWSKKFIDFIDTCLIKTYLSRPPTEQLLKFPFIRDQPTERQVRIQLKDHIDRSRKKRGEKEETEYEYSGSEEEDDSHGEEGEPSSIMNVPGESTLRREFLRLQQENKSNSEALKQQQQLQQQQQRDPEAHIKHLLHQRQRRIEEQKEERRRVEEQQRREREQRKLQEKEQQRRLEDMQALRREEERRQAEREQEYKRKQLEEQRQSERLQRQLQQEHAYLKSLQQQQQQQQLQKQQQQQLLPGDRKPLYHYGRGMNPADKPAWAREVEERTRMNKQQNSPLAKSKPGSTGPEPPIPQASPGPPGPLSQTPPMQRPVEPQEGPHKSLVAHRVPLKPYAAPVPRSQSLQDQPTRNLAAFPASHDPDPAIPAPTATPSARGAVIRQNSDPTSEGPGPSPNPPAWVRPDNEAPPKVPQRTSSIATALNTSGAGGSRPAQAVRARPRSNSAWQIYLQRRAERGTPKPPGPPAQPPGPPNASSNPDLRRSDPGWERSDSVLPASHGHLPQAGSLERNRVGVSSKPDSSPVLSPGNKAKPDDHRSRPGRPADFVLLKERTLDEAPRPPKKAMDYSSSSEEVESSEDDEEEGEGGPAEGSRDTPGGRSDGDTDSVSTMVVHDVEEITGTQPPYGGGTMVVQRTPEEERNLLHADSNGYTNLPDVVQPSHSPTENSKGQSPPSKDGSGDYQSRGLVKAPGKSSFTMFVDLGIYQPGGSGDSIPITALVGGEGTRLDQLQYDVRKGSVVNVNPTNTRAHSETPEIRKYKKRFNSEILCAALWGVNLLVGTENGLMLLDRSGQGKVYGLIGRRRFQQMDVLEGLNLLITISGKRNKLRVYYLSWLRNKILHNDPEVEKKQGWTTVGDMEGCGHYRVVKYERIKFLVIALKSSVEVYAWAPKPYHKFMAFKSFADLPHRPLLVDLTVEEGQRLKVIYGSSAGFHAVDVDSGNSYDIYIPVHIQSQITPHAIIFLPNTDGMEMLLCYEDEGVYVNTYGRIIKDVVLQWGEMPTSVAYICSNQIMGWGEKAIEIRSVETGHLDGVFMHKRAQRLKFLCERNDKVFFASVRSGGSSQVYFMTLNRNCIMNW

The term pIC50 denotes the IC50 on a negative log10 scale, so that one unit is a factor of ten. As a reminder, the GI50 is the concentration giving 50% growth inhibition. Regarding `CCCS(=O)(=O)Nc1ccc(F)c(C(=O)c2c[nH]c3ncc(Cl)cc23)c1F` [PLX4720], at MLK1 (MAP3K9) (ref Tsai et al., 2008), the pIC50 is less than 5.30. Further, on MAP4K3, the remaining binding at 0.05 µM was 100%, the remaining binding at 0.2 µM was found to be 95%, the remaining binding at 1 µM is 90% and the remaining binding at 10 µM turned out to be 56%. Besides, the “direct inhibition of JNK and p38 isoforms” value with JNK and p38 isoforms is reported as “not significantly inhibited”. Besides, the “apoptotic epidermal keratinocytes in irradiated skin” value in experiment [1] is 4.9 ± 0.3 apoptotic cells/mm skin. Besides, at TAOK2, the remaining binding at 0.05 µM amounted to 92%, the remaining binding at 0.2 µM was 100%, the remaining binding at 1 µM worked out at 93% and the remaining binding at 10 µM was found to be 51%. Moreover, the remaining activity at 0.05 µM on BRAF(V600E) (read-out: Percent control (50 nM)) came out at 38%. For the same molecule, on BRAF(V600E) (read-out: Percent control (200 nM)), the remaining activity at 0.2 µM amounted to 19%. Besides, on BRAF(V600E) (read-out: Percent control (1000 nM)), the remaining activity at 1 µM was found to be 3.9%. Moreover, the remaining activity at 10 µM on BRAF(V600E) (read-out: Percent control (10 μM)) was 0.1%. Besides, the GI50 in the experiment on A375 melanoma cell line is 500 nM.

Turning to `CCCS(=O)(=O)Nc1ccc(F)c(C(=O)c2c[nH]c3ncc(-c4ccc(Cl)cc4)cc23)c1F` [vemurafenib], at MLK1 (MAP3K9) (ref Bollag et al., 2010), the negative logarithm of the IC50 (pIC50) was less than 6.00. Besides, at MAP4K3, the remaining binding at 0.05 µM was 80%, the remaining binding at 0.2 µM is 90%, the remaining binding at 1 µM is 82% and the remaining binding at 10 µM amounted to 24%. Also, the pIC50 at MINK (MINK1) is less than 6.00. In addition, the “direct inhibition of JNK and p38 isoforms” value in the experiment on JNK and p38 isoforms was “not significantly inhibited”. Moreover, the pIC50 at TAOK2 (estimated Kd, averaged pointwise estimates, transformed Hill equation, read-out: Calculated estimate of IC50) is 4.93. At TAOK2, the remaining binding at 0.05 µM was 98%, the remaining binding at 0.2 µM is 92%, the remaining binding at 1 µM amounted to 95% and the remaining binding at 10 µM is 70%.
